Experimental data: US20250302837A1, “INHIBITORS OF CHYMASE FOR USE IN THE SELECTIVE RESOLUTION OF THROMBI IN THROMBOTIC OR THROMBOEMBOLIC DISORDERS” (SOCPRA SCIENCES SANTÉ ET HUMAINES S.E.C., priority 2022, published 2025)
Values belong to the molecule of their own block, whether it stands above or below them.

Legend:
[1] = molecular target: plasminogen/plasmin (Homo sapiens (Human), UniProt P00747); assay: Halo assay: tPA-induced fibrinolysis of human blood halos, plasmin inhibitor control; conditions: 0.1 μM or 1 μM co-administered with tPA, pre-formed halo
[2] = tested on: mouse FeCl3-induced injury thrombosis model; assay: Ferric chloride-induced injury at the inferior vena cava in mouse; type: in vivo; conditions: mouse IVC FeCl3 injury; 10 mg/kg TY-51469 intraperitoneal 1 h prior to anesthesia
Experimental: A laparotomy was performed, and the guts were gently displaced without injury from the abdominal cavity and conserved in 0.9% NaCl solution (37° C.). The IVC was exposed by separation of the vessel between the renal and iliolumbar veins. […] The guts were subsequently moved back in their original location in the abdomen. Mice were sacrificed 30 min later to access the thrombotic area in the IVC. IVCs were dissected and thrombi were isolated and weighted with an analytical balance (0.1 mg accuracy, Entris II, Sartorius).

[3] = molecular target: plasmin in mouse thrombus extracts (Mus musculus (Mouse), UniProt P20918); assay: Intra-thrombus plasmin enzymatic activity ex vivo, mouse thrombi; type: biochemical; conditions: thrombus from venous stenosis in mouse, +10 μM TY-51469
Experimental: (§1) Plasmin activity was determined by the hydrolysis rate of 50 μM of substrate, D-Ala-Leu-Lys-7-amido-4-methylcoumarin (Sigma Aldrich, Saint-Louis, MO, USA) at 37° C. for 1 h. Chymase activity was determined by the hydrolysis rate of 10 μM of substrate, Suc-Leu-Leu-Val-Tyr-7-amido-4-methylcoumarin (Peptide Institute Inc., Osaka, Japan) at 37° C. for 1 h. The fluorescence released was measured with an Infinite M1000 spectrophotometer (Tecan Group Ltd., Mannerdorf, Switzerland) with λex=370 nm and λem=460 nm.

[4] = tested on: mouse venous stenosis (DVT) model; assay: Venous stenosis model in mouse (IVC), thrombus measurement; type: in vivo
Experimental: By doing this, we ensure that the endothelium is not denuded and that a residual flow of 10% in the IVC still remains. The guts were subsequently moved back in their original location in the abdomen and the abdominal cavity was closed in layers with a braided 5.0 absorbable suture. […] The IVCs were dissected post-euthanasia, and thrombi isolated, measured, weighed, and finally stored at −80° C.
(§2) The stenosis was evaluated 24- or 48-hours post-ligation. The IVCs were dissected, and thrombi were isolated, measured, and weighted.
as §2

[5] = molecular target: recombinant human chymase (Homo sapiens (Human), UniProt P23946); assay: Enzymatic chymase activity assay (human)
[6] = molecular target: Mouse chymase (rmMCP-4) (Mus musculus (Mouse), UniProt P21812); assay: Mouse plasmin degradation by chymase, cleavage products by LC-MS/MS; type: biochemical; conditions: FIG. 3B
Experimental: (§7) The reaction was stopped with an equal volume of formic acid (FA) (for a final concentration of 4% (v/v) in water) and samples were maintained on ice until protein precipitation.
Proteins from in vitro cleavage assays were first precipitated by the addition of trichloroacetic acid (TCA) to a final concentration of 10% (v/v) and incubated for 30 min at −20° C. […] Protein pellet was washed with cold 100% acetone, air dried, and re-suspended in 50 μL of a solution containing 8 M urea, 10 mM HEPES-KOH (pH 7.4). The protein reduction step was carried out by adding DTT (Thermo Fisher Scientific, Waltham, MA, USA) to a final concentration of 5 mM and boil at 95° C. for 2 min, then incubated at room temperature for 30 min. […] Urea concentration was decreased to 2 M by the addition of 150 μL of 50 mM ammonium bicarbonate (NH4HCO3). The proteins were digested by adding 1 g Pierce MS-grade trypsin (Thermo Fisher Scientific, Waltham, MA, USA) and incubated overnight at 30° C. Digestion was stopped by adding trifluoroacetic acid (TFA) to a final concentration of 0.2% (v/v). The peptides were purified with Pierce C18 100-μL tips column (Thermo Fisher Scientific, Waltham, MA, USA). Briefly, the C18 tip column was first moistened by suctioning 100 μL of 100% acetonitrile (ACN) three times, then equilibrated by suctioning 100 μL of 0.1% (v/v) TFA buffer 3 times. […]

[7] = tested on: mouse tail bleeding model; assay: Tail bleeding time in mouse; type: in vivo
Experimental: The tail was cut 3 mm starting from the extremity. The time at which the bleeding stopped was noted. After 30 min, all animals were euthanized.

[8] = molecular target: Thrombin (Homo sapiens (Human), UniProt P00734); assay: Serine protease selectivity assay: thrombin; type: biochemical
Experimental: (§3) The potency of test compounds against several other human serine proteases, including coagulation proteases, in buffer was analyzed in biochemical assays based on the fluorimetric detection of aminomethylcoumarine (AMC) cleaved from specific synthetic peptidic substrates by the respective proteases.
(§4) Serine protease assays were comprised of the following enzymes and substrates (final assay concentrations are given).
(§5) Test compounds were diluted in dimethylsulfoxide (DMSO) to final assay concentrations of 0-50 μM. The respective human serine protease and the respective substrate were diluted in buffer solutions (pH 7.4) consisting of 50 mM Tris/HCl, 100 mM NaCl, 5 mM CaCl2, and 0.1% bovine serum albumin to the final concentrations given below. Diluted test compound or DMSO (1 μL) in assay buffer (20 μL), diluted serine protease solution (20 μL), and substrate solution (20 μL) were added to 384-well microtiter plates (Greiner Bio-One, Frickenhausen, Germany).

[9] = molecular target: Plasmin (Homo sapiens (Human), UniProt P00747); assay: Serine protease selectivity assay: plasmin; type: biochemical
Experimental: as §3, §4, §5

[10] = molecular target: Plasma kallikrein (Homo sapiens (Human), UniProt P03952); assay: Serine protease selectivity assay: plasma kallikrein; type: biochemical
Experimental: as §3, §4, §5

[11] = tested on: chymase in mouse thrombus extracts; assay: Intra-thrombus chymase enzymatic activity ex vivo, mouse thrombi; type: biochemical; conditions: thrombus from venous stenosis in mouse, +10 μM TY-51469
Experimental: as §1

[12] = molecular target: Recombinant human cathepsin G (Homo sapiens (Human), UniProt P08311); assay: Selectivity: cathepsin G assay; type: biochemical
Experimental: Recombinant human cathepsin G (CathG) protein (Protein Technologies, Bayer A G) was used. […] IC50 values were calculated using an in-house software.

[13] = tested on: mouse venous stenosis model; assay: Blood flow (Doppler ultrasound) in venous stenosis model in mice; type: in vivo
Description: The main goal in thrombosis is to ensure sufficient blood flow for an appropriate maintenance of the tissue surrounding the vessel. […] Mice were anesthetized during the procedure (2% isoflurane; 4% oxygen) and their abdomens were shaved and covered with ultrasound gel.

[14] = molecular target: T1, human chymase (rCMA-1) (Homo sapiens (Human), UniProt P23946); assay: Plasmin activity in the presence of human chymase; type: biochemical; conditions: human plasmin + rCMA-1; fulacimstat 0.1-[…], TY-51469 0.1 or 1 μM
Experimental: (§6) Active murine cathepsin C was diluted to 20 μg/mL in cathepsin C buffer (50 mM MES, 50 mM NaCl, 5 mM DTT, pH 5.5). Activation was performed by adding equal volumes of recombinant chymase and cathepsin C, adding 50 μg/mL heparin and incubating 1 h at room temperature.

[15] = molecular target: T1, human chymase (rCMA-1); assay: Human plasmin degradation by chymase, cleavage products by LC-MS/MS; type: biochemical; conditions: FIG. 3A
Experimental: as §7
Proteins from in vitro cleavage assays were first precipitated by the addition of trichloroacetic acid (TCA) to a final concentration of 10% (v/v) and incubated for 30 min at −20° C. […] Protein pellet was washed with cold 100% acetone, air dried, and re-suspended in 50 μL of a solution containing 8 M urea, 10 mM HEPES-KOH (pH 7.4). […] The proteins were digested by adding 1 g Pierce MS-grade trypsin (Thermo Fisher Scientific, Waltham, MA, USA) and incubated overnight at 30° C. Digestion was stopped by adding trifluoroacetic acid (TFA) to a final concentration of 0.2% (v/v). The peptides were purified with Pierce C18 100-μL tips column (Thermo Fisher Scientific, Waltham, MA, USA). Briefly, the C18 tip column was first moistened by suctioning 100 μL of 100% acetonitrile (ACN) three times, then equilibrated by suctioning 100 μL of 0.1% (v/v) TFA buffer 3 times. Each peptide sample was passed on the balanced C18 tip column by 10 succeeding up-and-downs of 100 μL of the sample. This step was performed twice in order to administer the entire sample on the column. The C18 tip column was then washed with 100 μL of 0.1% (v/v) TFA buffer 3 times. […] This step was carried out 3 times to obtain a final volume of 300 μL. […]

[16] = molecular target: recombinant mouse mMCP-4 (rmMCP-4) (Mus musculus (Mouse), UniProt P21812); assay: Plasmin activity in the presence of murine chymase; type: biochemical; conditions: mouse plasmin + rmMCP-4; fulacimstat 0.1-[…], TY-51469 0.1 or 1 μM
Experimental: as §6, with “temperature. […] Plasmin activity was determined by the hydrolysis rate of 50 μM of substrate, D-Ala-Leu-Lys-7-amido-4-methylcoumarin (Sigma Aldrich, Saint-Louis, MO, USA) at 37° C. for 1 h, combined in a white 96-well microtitre plate.” for “temperature.”

[17] = molecular target: recombinant hamster chymase; assay: Enzymatic chymase activity assay (hamster)
[18] = molecular target: Factor Xa (Homo sapiens (Human), UniProt P00742); assay: Serine protease selectivity assay: factor Xa; type: biochemical
Experimental: as §3, §4, §5

[19] = molecular target: Tissue plasminogen activator (Homo sapiens (Human), UniProt P00750); assay: Serine protease selectivity assay: tPA; type: biochemical
Experimental: as §3, §4, §5

[20] = molecular target: Trypsin (Homo sapiens, UniProt P07477); assay: Serine protease selectivity assay: trypsin; type: biochemical
Experimental: as §3, §4, §5

[21] = molecular target: Factor XIa (Homo sapiens (Human), UniProt P03951); assay: Serine protease selectivity assay: factor XIa; type: biochemical
Experimental: as §3, §4, §5

[22] = oral intake; cited from earlier work
[23] = cited from earlier work
[24] = TY-51469 0.1 mg/kg i.p. 1 h after initiation of stenosis, observation 24 h
[25] = TY-51469 1 mg/kg i.p. 1 h after initiation of stenosis, observation 24 h
[26] = TY-51469 10 mg/kg i.p. 1 h after initiation of stenosis, observation 24 h
[27] = TY-51469 10 mg/kg i.p. 24 h after initiation of stenosis, observation 48 h
[28] = 10 mg/kg TY-51469 i.p. 1 h after start of stenosis, 6 h post-ligation
[29] = 10 mg/kg TY-51469 i.p. 1 h after start of stenosis, 24 h post-ligation
[30] = TY-51469 group, non-ligated (pre-ligation baseline)

- tPA-induced fibrinolysis of human blood halos [1]: very significantly reduced
Molecule: Cl.O=c1cc(C2CCNCC2)n2nc3cccc(Cl)c3c2[nH]1 [Example 3 in WO2015067549]

Molecule: Cc1c(S(=O)(=O)Nc2ccc(-c3nc(C(=O)O)cs3)cc2S(C)(=O)=O)sc2ccc(F)cc12 [TY-51469, 2-(4-((5-fluoro-3-methylbenzo-[b]thiophene)-2-sulfonamido)-3-(methylsulfonyl)phenyl)thiazole-4-carboxylic acid]
- Thrombus weight [2]: 1.31 mg
- Plasmin activity [3]: 13.16 ± 1.26 nM AMC
- Thrombus length [4, 24]: 3.79 mm
- Thrombus weight [4, 24]: 8.19 mg
- Thrombus length [4, 25]: 1.79 mm
- Thrombus weight [4, 25]: 4.04 mg
- Thrombus length [4, 26]: 0.22 mm
- Thrombus weight [4, 26]: 0.47 mg
- Thrombus length [4, 27]: 1.0 mm
- Thrombus weight [4, 27]: 1.29 mg
- IC50 [5]: 20 nM
- degradation of plasmin by chymase [6]: prevented
- impact on bleeding time (in words) ([7]; mouse tail bleeding model): no impact on the bleeding time
- Bleeding time prolongation ([7]; mouse tail bleeding, TY-51469 10 mg/kg): 1.0 xfold of Ctr
- Bleeding time ([7]; mouse tail bleeding, TY-51469 10 mg/kg IP 1 h prior): 4.08 min
- IC50 [8]: > 2000 nM
- IC50 [9]: > 2000 nM
- IC50 [10]: > 2000 nM
- Chymase activity [11]: 0.33 ± 0.25 nM AMC
- IC50 ([12]; Cathepsin G): 1300 nM
- less potency on cathepsin G than chymase ([12]; cathepsin G vs chymase): 60 fold
- Abdominal aorta velocity [13, 28]: 487.6 ± 33.1 mm/s
- Inferior vena cava velocity [13, 28]: 171.6 ± 27.1 mm/s
- Abdominal aorta velocity [13, 29]: 505.8 ± 40.4 mm/s
- Inferior vena cava velocity [13, 29]: 158.5 ± 18.3 mm/s
- Abdominal aorta velocity [13, 30]: 508.2 ± 29.7 mm/s
- Inferior vena cava velocity [13, 30]: 124.6 ± 28.7 mm/s
- plasmin activity (fluorescence generation) in presence of chymase [14]: increased again concentration-dependently
- degradation of plasmin by chymase [15]: prevented
- plasmin activity (fluorescence generation) in presence of chymase [16]: increased again concentration-dependently
- IC50 [17]: 66 nM
- IC50 [18]: > 2000 nM
- IC50 [19]: > 2000 nM
- IC50 [20]: > 2000 nM
- IC50 [21]: > 2000 nM

- degradation of plasmin by chymase [6]: prevented
Molecule: Cn1c(=O)oc2cc(-n3cc(C(=O)O)c(=O)n([C@@H]4CCc5c4cccc5C(F)(F)F)c3=O)ccc21 [fulacimstat, 1-(3-methyl-2-oxo-2,3-dihydro-1,3-benzoxazol-6-yl)-2,4-dioxo-3-[(1R)-4-(trifluoromethyl)-2,3-dihydro-1H-inden-1-yl]-1,2,3,4-tetrahydropyrimidine-5-carboxylic acid]
- oral bioavailability [22]: bioavailable after oral intake
- plasmin activity (fluorescence generation) in presence of chymase [16]: increased again concentration-dependently

Molecule: tPA: Recombinant tissue-type plasminogen activator (rtPA, alteplase), the most widely used fibrinolytic drug
- dominant half-life in human plasma [23]: < 5 min
